The numbers were not newly measured in publication PMC9014651 (Bioorganic Chemistry, 2022), which cites them from elsewhere.

The series has as its system coronavirus variants (B.1.1.7 and B.1.351). The settings on record: cited from earlier work.

For the compound `Cc1ccc(NC(=O)c2ccc(CN3CCN(C)CC3)cc2)cc1Nc1nc(-c2cccnc2)cs1` [Masitinib], the “Effect on tested coronavirus variants in vitro” value is “effective”.
